Source: patent publication US5496947A, “Quinolone carboxylic acid derivatives” (Dong Wha Pharmaceutical Industrial Co., Ltd., priority 1994, dated 1996)
Values after ≈ are worked out from the molar mass of the structure shown. Read-outs that look alike come from different tables or passages of the source.

Experiments:
Type in all cases: cell-based
[1] = test system: Streptococcus pneumoniae ATCC 6303; experiment: MIC, 2-fold dilution method in micro-well plate, S. pneumoniae; conditions: S. pneuinoniae ATCC6303, 37° C., read-out: Minimum Inhibitory Concentration
Method: (§1) The in vitro antibiotic activity of the present compound is measured using 2-fold dilution method with a micro-well plate and the bacteria are inoculated in about 10^5 cfu/ml after an overnight culture in a brain-heart infusion (BHI) broth at 37° C. The novel compounds of the present invention are converted to a hydrochloride salt form and diluted with a sterilized distilled water to make 10 mg/ml aqueous solution. After the mother liquor wherein the compound is diluted to the two-fold concentration has been obtained in the form of an aqueous solution, the respective 0.1 ml of diluted liquor is transferred to a well and is inoculated with 0.1 ml of the culture fluid to make about (10^5 -10^6)/2 cfu/ml.
(§2) After cultivation at 37° C., the minimum inhibitory concentration (MIC) is measured and recorded in Table I-V.
(§3) Table I-V show the minimum inhibitory concentrations (MIC).
Streptococcus pneumoniae ATCC 6303

[2] = test system: Haemophilus influenza ATCC 35056; experiment: MIC, 2-fold dilution method in micro-well plate, H. influenzae; conditions: H. influenzae ATCC35056, 37° C.; read-out: Minimum Inhibitory Concentration
Method: as §1, §2, §3
Haemophilus influenza ATCC 35056

[3] = test system: Klebsiella pneumoniae ATCC 13883; experiment: MIC, 2-fold dilution method in micro-well plate, K. pneumoniae
Method: as §1, §2, §3
Klebsiella pneumoniae ATCC 13883

[4] = test system: Serratia marcescens ATCC 8100; experiment: MIC, 2-fold dilution method in micro-well plate, S. marcescens
Method: as §1, §2, §3
Serratia marcescens ATCC 8100

Enterobacter cloacae = experiment: MIC, 2-fold dilution method in micro-well plate, E. cloacae; conditions: read-out: Minimum Inhibitory Concentration
Method: as §1, §2, §3
Enterobacter cloacae ATCC 23355

[5] = test system: Proteus vulgaris ATCC 13315; experiment: MIC, 2-fold dilution method in micro-well plate, P. vulgaris
Method: as §1, §2, §3
Proteus vulgaris ATCC 13315

[6] = test system: Salmonella typhimurium ATCC 14028; experiment: MIC, 2-fold dilution method in micro-well plate, S. typhimurium; conditions: Salmonella enterica, read-out: Minimum Inhibitory Concentration
Method: as §1, §2, §3
Salmonella typhimurium ATCC 14028

[7] = test system: Streptococcus faecalis ATCC 29212; experiment: MIC, 2-fold dilution method in micro-well plate, S. faecalis ATCC 29212; conditions: Enterococcus faecalis; S. faecalis ATCC29212, 37° C.; read-out: Minimum Inhibitory Concentration
Method: as §1, §2, §3
Streptococcus faecalis ATCC 29212

[8] = test system: Citrobacter freundii ATCC 8090; experiment: MIC, 2-fold dilution method in micro-well plate, C. freundii
Method: as §1, §2, §3
Citrobacter freundii ATCC 8090

[9] = test system: Streptococcus pyrogens ATCC 19615; experiment: MIC, 2-fold dilution method in micro-well plate, S. pyrogens; conditions: S. pyrogenes ATCC19615, 37° C., read-out: Minimum Inhibitory Concentration
Method: as §1, §2, §3
Streptococcus pyrogens ATCC 19615

[10] = test system: Shigella flexneri ATCC 12022; experiment: MIC, 2-fold dilution method in micro-well plate, S. flexneri; conditions: S. flexneri ATCC12022, 37° C., read-out: Minimum Inhibitory Concentration
Method: as §1, §2, §3
Shigella flexneri ATCC 12022

[11] = test system: Shigella sonnei ATCC 25931; experiment: MIC, 2-fold dilution method in micro-well plate, S. sonnei; conditions: S. sonnei ATCC25931, 37° C., read-out: Minimum Inhibitory Concentration
Method: as §1, §2, §3
Shigella sonnei ATCC 25931

[12] = test system: Enterobacter aerogenes ATCC 13048; experiment: MIC, 2-fold dilution method in micro-well plate, E. aerogenes; conditions: Klebsiella aerogenes
Method: as §1, §2, §3
Enterobacter aerogenes ATCC 13048

[13] = test system: Streptococcus faecalis ATCC 19433; experiment: MIC, 2-fold dilution method in micro-well plate, S. faecalis ATCC 19433; conditions: Enterococcus faecalis; S. faecalis ATCC19433, 37° C.; read-out: Minimum Inhibitory Concentration
Method: as §1, §2, §3
Streptococcus faecalis ATCC 19433

[14] = test system: Escherichia coli ATCC 25922; experiment: MIC, 2-fold dilution method in micro-well plate, E. coli
Method: as §1, §2, §3
Escherichia coli ATCC 25922

[15] = test system: Acinetobacter calcoaceticus; experiment: MIC, 2-fold dilution method in micro-well plate, A. calcoaceticus; conditions: A. calcoaceticus ATCC8090 (as in tables), 37° C., read-out: Minimum Inhibitory Concentration
Method: as §1, §2
Table I-V show the minimum inhibitory concentrations (MIC). […]

[16] = test system: Pseudomonas aeruginosa ATCC 27853; experiment: MIC, 2-fold dilution method in micro-well plate, P. aeruginosa
Method: as §1, §2, §3
Pseudomonas aeruginosa ATCC 27853

[17] = K. pneumoniae ATCC13883, 37° C., read-out: Minimum Inhibitory Concentration
[18] = S. marcescens ATCC8100, 37° C., read-out: Minimum Inhibitory Concentration
[19] = E. cloacae ATCC23355 (as in tables), 37° C.
[20] = ATCC8090, read-out: Minimum Inhibitory Concentration
[21] = ATCC13048, read-out: Minimum Inhibitory Concentration
[22] = E. coli ATCC25922, 37° C., read-out: Minimum Inhibitory Concentration
[23] = ATCC13315, read-out: Minimum Inhibitory Concentration
[24] = C. freundii ATCC8090, 37° C., read-out: Minimum Inhibitory Concentration
[25] = ATCC27853, read-out: Minimum Inhibitory Concentration
[26] = ATCC13883, read-out: Minimum Inhibitory Concentration
[27] = ATCC8100, read-out: Minimum Inhibitory Concentration
[28] = ATCC25922, read-out: Minimum Inhibitory Concentration

| Compound | MIC [1] | MIC [2] | MIC [3, 17] | MIC [4, 18] | MIC (Enterobacter cloacae; [19]) | MIC [7] | MIC [8, 20] | MIC [9] | MIC [10] | MIC [11] | MIC [12, 21] | MIC [13] | MIC [14, 22] | MIC [15] | MIC [5, 23] | MIC [6] | MIC [8, 24] | MIC [16, 25] | MIC [3, 26] | MIC [4, 27] | other results |
| --- | --- | --- | --- | --- | --- | --- | --- | --- | --- | --- | --- | --- | --- | --- | --- | --- | --- | --- | --- | --- | --- |
| N[C@H]1CCN(c2cc3c(cc2F)c(=O)c(C(=O)O)cn3-c2ccncc2F)C1 [Example 6, 1-(3-fluoro-4-pyridyl)-6-fluoro-7-[(3S)-3-amino-1-pyrrolidinyl]-1,4-dihydro-4-oxoquinoline-3-carboxylic acid] | 2.5 µg/mL (≈ 6.47 µM) | 0.313 µg/mL (≈ 0.81 µM) | 0.156 µg/mL (≈ 0.404 µM) | 0.078 µg/mL (≈ 0.202 µM) | 0.156 µg/mL (≈ 0.404 µM) | 2.5 µg/mL (≈ 6.47 µM) | 0.313 µg/mL (≈ 0.81 µM) | 2.5 µg/mL (≈ 6.47 µM) | 0.313 µg/mL (≈ 0.81 µM) | 0.02 µg/mL (≈ 0.0518 µM) | 0.313 µg/mL (≈ 0.81 µM) | 1.25 µg/mL (≈ 3.24 µM) | 0.078 µg/mL (≈ 0.202 µM) | 0.156 µg/mL (≈ 0.404 µM) | – | – | – | – | – | – | MIC ([5]; P. vulgaris ATCC13315, 37° C., read-out: Minimum Inhibitory Concentration): 0.078 µg/mL (≈ 0.202 µM); MIC ([6]; S. typhisurium ATCC14028, 37° C.): 0.156 µg/mL (≈ 0.404 µM); MIC ([16]; P. aerugirnosa ATCC27853, 37° C., read-out: Minimum Inhibitory Concentration): 0.156 µg/mL (≈ 0.404 µM) |
| Cl.O=C(O)c1cn(-c2ccncc2F)c2nc(N3CCNCC3)c(F)cc2c1=O [Example 7, 1-(3-fluoro-4-pyridyl)-6-fluoro-7-(1-piperazinyl)-1,4-dihydro-4-oxo-1,8-naphthyridine-3-carboxylic acid hydrochloride] | 2.5 µg/mL | 0.313 µg/mL | 0.625 µg/mL | 1.25 µg/mL | 0.625 µg/mL | 5 µg/mL | – | 5 µg/mL | 0.156 µg/mL | 0.313 µg/mL | – | 2.5 µg/mL | 0.625 µg/mL | 2.5 µg/mL | 0.313 µg/mL | 0.313 µg/mL | 1.25 µg/mL | 0.625 µg/mL | – | – | MIC ([12]; E. aerogenes ATCC13048, 37° C., read-out: Minimum Inhibitory Concentration): 0.625 µg/mL |
| CN1CCN(c2nc3c(cc2F)c(=O)c(C(=O)O)cn3-c2ccncc2F)CC1.Cl [Example 8, 1-(3-fluoro-4-pyridyl)-6-fluoro-7-(4-methyl-1-piperazinyl)-1,4-dihydro-4-oxo-1,8-naphthyridine-3-carboxylic acid hydrochloride] | 5 µg/mL | 0.625 µg/mL | – | – | – | 5 µg/mL | – | 10 µg/mL | 0.313 µg/mL | 0.625 µg/mL | 0.625 µg/mL | 5 µg/mL | – | 1.25 µg/mL | 0.313 µg/mL | 0.313 µg/mL | 1.25 µg/mL | 0.625 µg/mL | 0.625 µg/mL | 0.625 µg/mL | MIC (Enterobacter cloacae): 0.625 µg/mL; MIC [14, 28]: 0.313 µg/mL |
| CC1CN(c2nc3c(cc2F)c(=O)c(C(=O)O)cn3-c2ccncc2F)CCN1.Cl (centres unmarked) [Example 9, 1-(3-fluoro-4-pyridyl)-6-fluoro-7-(3-methyl-1-piperazinyl)-1,4-dihydro-4-oxo-1,8-naphthyridine-3-carboxylic acid hydrochloride] | 5 µg/mL | 1.25 µg/mL | – | – | – | 2.5 µg/mL | 1.25 µg/mL | 10 µg/mL | 0.625 µg/mL | 0.625 µg/mL | 0.625 µg/mL | 2.5 µg/mL | – | 10 µg/mL | 0.625 µg/mL | 0.625 µg/mL | – | 0.625 µg/mL | 1.25 µg/mL | 1.25 µg/mL | MIC (Enterobacter cloacae): 0.625 µg/mL; MIC [14, 28]: 0.625 µg/mL |
